Experiments:
barnyardgrass [1] = experiment: Test A postemergence; assay type: in vivo, Echinochloa crus-galli; settings: Postemergence
Method in brief: (§1)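 Greenhouse test in loam soil/sand blend; compounds formulated in non-phytotoxic solvent with surfactant, applied as preemergence directed soil spray or postemergence to plants 2–10 cm tall at one- to two-leaf stage. Injury rated visually versus untreated controls after approximately 10 days on a 0 (no effect) to 100 (complete control) scale.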

wheat [2] = experiment: Test A postemergence; assay type: in vivo, Triticum aestivum
Method in brief: as §1

barnyardgrass [3] = experiment: Test A preemergence; assay type: in vivo, Echinochloa crus-galli; settings: 0 to 100 scale
Method in brief: as §1

foxtail, giant [4] = experiment: Test A preemergence; assay type: in vivo, Setaria faberii; settings: 0 to 100 scale
Method in brief: as §1

velvetleaf [5] = experiment: Test A preemergence; assay type: in vivo, Abutilon theophrasti; settings: 0 to 100 scale
Method in brief: as §1

pigweed [6] = experiment: Test A preemergence; assay type: in vivo, Amaranthus retroflexus; settings: Preemergence, 0 to 100 scale, 0 no effect, 100 complete control
Method in brief: as §1

morningglory [7] = experiment: Test A postemergence; assay type: in vivo, Ipomoea spp.
Description: (§2) Seeds of plant species selected from barnyardgrass (Echinochloa crus-galli), kochia (Kochia scoparia), common ragweed (Ambrosia elation), Italian ryegrass (Lolium multiflorum), crabgrass, large (large crabgrass, Digitaria sanguinalis), foxtail, giant (giant foxtail, Setaria faberii), morningglory (Ipomoea spp.), pigweed (redroot pigweed, Amaranthus retroflexus), velvetleaf (Abutilon theophrasti), wheat (Triticum aestivum), and corn (Zea mays) were planted into a blend of loam soil and sand and treated preemergence with a directed soil spray using test chemicals formulated in a non-phytotoxic solvent mixture which included a surfactant.
(§3) At the same time, plants selected from these crop and weed species and also blackgrass (Alopecurus myosuroides), and galium (catchweed bedstraw, Galium aparine) were planted in pots containing the same blend of loam soil and sand and treated with postemergence applications of test chemicals formulated in the same manner. Plants ranged in height from 2 to 10 cm and were in the one- to two-leaf stage for the postemergence treatment. Treated plants and untreated controls were maintained in a greenhouse for approximately 10 days, after which time all treated plants were compared to untreated controls and visually evaluated for injury. Plant response ratings, summarized in Table A, are based on a 0 to 100 scale where 0 is no effect and 100 is complete control. A dash (-) response means no test result.

morningglory [8] = experiment: Test A preemergence; assay type: in vivo, Ipomoea spp.; settings: 0 to 100 scale
Description: as §2, §3

crabgrass, large [9] = experiment: Test A preemergence; assay type: in vivo, Digitaria sanguinalis; settings: 0 to 100 scale
Method in brief: as §1

pigweed [10] = experiment: Test A postemergence; assay type: in vivo, Amaranthus retroflexus
Description: as §2, §3

corn [11] = experiment: Test A preemergence; assay type: in vivo, Zea mays; settings: 0 to 100 scale
Description: as §2, §3

crabgrass, large [12] = experiment: Test A postemergence; assay type: in vivo, Digitaria sanguinalis
Method in brief: as §1

foxtail, giant [13] = experiment: Test A postemergence; assay type: in vivo, Setaria faberii
Method in brief: as §1

velvetleaf [14] = experiment: Test A postemergence; assay type: in vivo, Abutilon theophrasti
Method in brief: as §1

wheat [15] = experiment: Test A preemergence; assay type: in vivo, Triticum aestivum
Method in brief: as §1

corn [16] = experiment: Test A postemergence; assay type: in vivo, Zea mays
Method in brief: as §1

[17] = Postemergence, 500 g ai/ha, visual rating after approx. 10 days, 0 to 100 scale (0 no effect, 100 complete control)
[18] = postemergence, 125 g ai/ha, about 10 days, visual rating on 0 to 100 scale (0 no effect, 100 complete control)
[19] = Preemergence, 500 g ai/ha, 0 no effect, 100 complete control
[20] = preemergence, 125 g ai/ha, visual injury, approx. 10 days
[21] = 1000 g ai/ha, visual rating after approx. 10 days, 0 to 100 scale (0 no effect, 100 complete control)
[22] = Postemergence, 1000 g ai/ha, visual rating after approx. 10 days, 0 to 100 scale (0 no effect, 100 complete control)
[23] = Preemergence, 1000 g ai/ha, 0 no effect, 100 complete control
[24] = Preemergence, 1000 g ai/ha, 0 to 100 scale, 0 no effect, 100 complete control

With `Cc1cc(C(=O)NCC(F)(F)F)nn1Cc1cccc(C(F)(F)F)c1F` [Compound 9] the “Barnyardgrass plant response rating” value (barnyardgrass [1]; 125 g ai/ha, 0 to 100 scale, 0 no effect, 100 complete control) was 0, the “Barnyardgrass plant response rating” value (barnyardgrass [1]; 500 g ai/ha, visual rating after approx. 10 days, 0 to 100 scale (0 no effect, 100 complete control)) was 10 and the “Wheat plant response rating” value (wheat [2]; [17]) was 0. The “Wheat plant response rating” value (wheat [2]; [18]) was 0, the “Barnyardgrass plant response rating” value (barnyardgrass [3]; [19]) was 10 and the “Barnyardgrass plant response rating” value (barnyardgrass [3]; [20]) was 0. For the same compound, the “Foxtail, Giant plant response rating” value (foxtail, giant [4]; [19]) was 20, the “Foxtail, Giant plant response rating” value (foxtail, giant [4]; [20]) was 0 and the “Velvetleaf plant response rating” value (velvetleaf [5]; [19]) was 0. For the same compound, the “Velvetleaf plant response rating” value (velvetleaf [5]; [20]) was 0, the “Pigweed plant response rating” value (pigweed [6]; 500 g ai/ha) was 30 and the “Morningglory plant response rating” value (morningglory [7]; [17]) was 10. The “Morningglory plant response rating” value (morningglory [7]; [18]) was 0, the “Morningglory plant response rating” value (morningglory [8]; [19]) was 0 and the “Morningglory plant response rating” value (morningglory [8]; [20]) was 0. The “Crabgrass, Large plant response rating” value (crabgrass, large [9]; [19]) was 20, the “Crabgrass, Large plant response rating” value (crabgrass, large [9]; [20]) was 0 and the “Pigweed plant response rating” value (pigweed [10]; [17]) was 0. For the same compound, the “Pigweed plant response rating” value (pigweed [10]; [18]) was 0, the “Corn plant response rating” value (corn [11]; [19]) was 0 and the “Corn plant response rating” value (corn [11]; [20]) was 0. The “Crabgrass, Large plant response rating” value (crabgrass, large [12]; [17]) was 0, the “Crabgrass, Large plant response rating” value (crabgrass, large [12]; [18]) was 0 and the “Foxtail, Giant plant response rating” value (foxtail, giant [13]; [17]) was 0. The “Foxtail, Giant plant response rating” value (foxtail, giant [13]; [18]) was 0, the “Velvetleaf plant response rating” value (velvetleaf [14]; [17]) was 0 and the “Velvetleaf plant response rating” value (velvetleaf [14]; [18]) was 0. The “Wheat plant response rating” value (wheat [15]; preemergence, 125 g ai/ha, visual injury, 0 to 100 scale, approx. 10 days) was 0, the “Corn plant response rating” value (corn [16]; [17]) was 0 and the “Corn plant response rating” value (corn [16]; [18]) was 0.
For `O=C(NC1CC1)c1cc(C2CC2)n(Cc2cccc(OC(F)(F)F)c2)n1` [Compound 37], the “Barnyardgrass plant response rating” value (barnyardgrass [1]; [21]) was 10, the “Wheat plant response rating” value (wheat [2]; [22]) was 20 and the “Barnyardgrass plant response rating” value (barnyardgrass [3]; [23]) was 0. The “Foxtail, Giant plant response rating” value (foxtail, giant [4]; [23]) was 30, the “Velvetleaf plant response rating” value (velvetleaf [5]; [23]) was 0 and the “Pigweed plant response rating” value (pigweed [6]; 1000 g ai/ha) was 20. For the same compound, the “Morningglory plant response rating” value (morningglory [7]; [22]) was 80, the “Morningglory plant response rating” value (morningglory [8]; [23]) was 0 and the “Crabgrass, Large plant response rating” value (crabgrass, large [9]; [23]) was 40. The “Pigweed plant response rating” value (pigweed [10]; [22]) was 100, the “Corn plant response rating” value (corn [11]; [23]) was 0 and the “Crabgrass, Large plant response rating” value (crabgrass, large [12]; [22]) was 20. The “Foxtail, Giant plant response rating” value (foxtail, giant [13]; [22]) was 10, the “Velvetleaf plant response rating” value (velvetleaf [14]; [22]) was 70 and the “Wheat plant response rating” value (wheat [15]; [24]) was 0. The “Corn plant response rating” value (corn [16]; [22]) was 30.
In the case of `CCc1cc(C(=O)NC(C)C)nn1Cc1cccc(C(F)(F)F)c1` [Compound 47], the “Barnyardgrass plant response rating” value (barnyardgrass [1]; [21]) is reported as 60, the “Wheat plant response rating” value (wheat [2]; [22]) is reported as 40 and the “Barnyardgrass plant response rating” value (barnyardgrass [3]; [23]) is reported as 80. For the same compound, the “Foxtail, Giant plant response rating” value (foxtail, giant [4]; [23]) was 100, the “Velvetleaf plant response rating” value (velvetleaf [5]; [23]) was 60 and the “Pigweed plant response rating” value (pigweed [6]; 1000 g ai/ha) was 80. For the same compound, the “Morningglory plant response rating” value (morningglory [7]; [22]) was 100, the “Morningglory plant response rating” value (morningglory [8]; [23]) was 90 and the “Crabgrass, Large plant response rating” value (crabgrass, large [9]; [23]) was 100. For the same compound, the “Pigweed plant response rating” value (pigweed [10]; [22]) was 70, the “Corn plant response rating” value (corn [11]; [23]) was 40 and the “Crabgrass, Large plant response rating” value (crabgrass, large [12]; [22]) was 70. For the same compound, the “Foxtail, Giant plant response rating” value (foxtail, giant [13]; [22]) was 80, the “Velvetleaf plant response rating” value (velvetleaf [14]; [22]) was 60 and the “Wheat plant response rating” value (wheat [15]; [24]) was 50. For the same compound, the “Corn plant response rating” value (corn [16]; [22]) was 40.
With `CCCNC(=O)c1cc(SC)n(Cc2cccc(C(F)(F)F)c2)n1` [Compound 25] the “Barnyardgrass plant response rating” value (barnyardgrass [1]; [21]) was 10, the “Wheat plant response rating” value (wheat [2]; [22]) was 0 and the “Barnyardgrass plant response rating” value (barnyardgrass [3]; [23]) was 0. The “Foxtail, Giant plant response rating” value (foxtail, giant [4]; [23]) was 10, the “Velvetleaf plant response rating” value (velvetleaf [5]; [23]) was 0 and the “Pigweed plant response rating” value (pigweed [6]; 1000 g ai/ha) was 0. For the same compound, the “Morningglory plant response rating” value (morningglory [7]; [22]) was 100, the “Morningglory plant response rating” value (morningglory [8]; [23]) was 0 and the “Crabgrass, Large plant response rating” value (crabgrass, large [9]; [23]) was 20. The “Pigweed plant response rating” value (pigweed [10]; [22]) was 10, the “Corn plant response rating” value (corn [11]; [23]) was 0 and the “Crabgrass, Large plant response rating” value (crabgrass, large [12]; [22]) was 30. For the same compound, the “Foxtail, Giant plant response rating” value (foxtail, giant [13]; [22]) was 20, the “Velvetleaf plant response rating” value (velvetleaf [14]; [22]) was 50 and the “Wheat plant response rating” value (wheat [15]; [24]) was 0. The “Corn plant response rating” value (corn [16]; [22]) was 40.
With `CCc1cc(C(=O)N(C)CC)nn1Cc1cccc(C(F)(F)F)c1` [Compound 42] the “Barnyardgrass plant response rating” value (barnyardgrass [1]; [21]) was 20, the “Wheat plant response rating” value (wheat [2]; [22]) was 0 and the “Barnyardgrass plant response rating” value (barnyardgrass [3]; [23]) was 0. The “Foxtail, Giant plant response rating” value (foxtail, giant [4]; [23]) was 30, the “Velvetleaf plant response rating” value (velvetleaf [5]; [23]) was 0 and the “Pigweed plant response rating” value (pigweed [6]; 1000 g ai/ha) was 10. The “Morningglory plant response rating” value (morningglory [7]; [22]) was 60, the “Morningglory plant response rating” value (morningglory [8]; [23]) was 30 and the “Crabgrass, Large plant response rating” value (crabgrass, large [9]; [23]) was 40. For the same compound, the “Pigweed plant response rating” value (pigweed [10]; [22]) was 60, the “Corn plant response rating” value (corn [11]; [23]) was 0 and the “Crabgrass, Large plant response rating” value (crabgrass, large [12]; [22]) was 50. For the same compound, the “Foxtail, Giant plant response rating” value (foxtail, giant [13]; [22]) was 30, the “Velvetleaf plant response rating” value (velvetleaf [14]; [22]) was 40 and the “Wheat plant response rating” value (wheat [15]; [24]) was 0. The “Corn plant response rating” value (corn [16]; [22]) was 30.
For `CCc1cc(C(=O)N(C)OC)nn1Cc1cccc(C(F)(F)F)c1` [Compound 66], the “Barnyardgrass plant response rating” value (barnyardgrass [1]; [21]) was 20, the “Wheat plant response rating” value (wheat [2]; [22]) was 10 and the “Barnyardgrass plant response rating” value (barnyardgrass [3]; [23]) was 0. For the same compound, the “Foxtail, Giant plant response rating” value (foxtail, giant [4]; [23]) was 100, the “Velvetleaf plant response rating” value (velvetleaf [5]; [23]) was 20 and the “Pigweed plant response rating” value (pigweed [6]; 1000 g ai/ha) was 50. For the same compound, the “Morningglory plant response rating” value (morningglory [7]; [22]) was 50, the “Morningglory plant response rating” value (morningglory [8]; [23]) was 30 and the “Crabgrass, Large plant response rating” value (crabgrass, large [9]; [23]) was 50. For the same compound, the “Pigweed plant response rating” value (pigweed [10]; [22]) was 50, the “Corn plant response rating” value (corn [11]; [23]) was 0 and the “Crabgrass, Large plant response rating” value (crabgrass, large [12]; [22]) was 20. For the same compound, the “Foxtail, Giant plant response rating” value (foxtail, giant [13]; [22]) was 40, the “Velvetleaf plant response rating” value (velvetleaf [14]; [22]) was 40 and the “Wheat plant response rating” value (wheat [15]; [24]) was 0. The “Wheat plant response rating” value (wheat [15]; preemergence, 500 g ai/ha, visual injury after approx. 10 days, 0 to 100 scale (0 no effect, 100 complete control)) was 0 and the “Corn plant response rating” value (corn [16]; [22]) was 30.
With `C#CCNC(=O)c1cc(CC)n(Cc2cccc(OC(F)(F)F)c2)n1` [Compound 54] the “Barnyardgrass plant response rating” value (barnyardgrass [1]; [21]) was 10, the “Wheat plant response rating” value (wheat [2]; [22]) was 10 and the “Barnyardgrass plant response rating” value (barnyardgrass [3]; [23]) was 10. The “Foxtail, Giant plant response rating” value (foxtail, giant [4]; [23]) was 20, the “Velvetleaf plant response rating” value (velvetleaf [5]; [23]) was 0 and the “Pigweed plant response rating” value (pigweed [6]; 1000 g ai/ha) was 90. The “Morningglory plant response rating” value (morningglory [7]; [22]) was 70, the “Morningglory plant response rating” value (morningglory [8]; [23]) was 0 and the “Crabgrass, Large plant response rating” value (crabgrass, large [9]; [23]) was 40. The “Pigweed plant response rating” value (pigweed [10]; [22]) was 70, the “Corn plant response rating” value (corn [11]; [23]) was 0 and the “Crabgrass, Large plant response rating” value (crabgrass, large [12]; [22]) was 10. For the same compound, the “Foxtail, Giant plant response rating” value (foxtail, giant [13]; [22]) was 10, the “Velvetleaf plant response rating” value (velvetleaf [14]; [22]) was 60 and the “Wheat plant response rating” value (wheat [15]; [24]) was 0. For the same compound, the “Corn plant response rating” value (corn [16]; [22]) was 20.
